Assay [1] relates to Intraluminal pressure in the Heidenhain pouch. Description: Intraluminal pressure in the Heidenhain pouch of the dog (increase in amplitude of rhythmical contractions). In kind it is in vivo. The settings on record: Canis lupus familiaris, iv, fasted lightly restrained conscious, increase in amplitude of rhythmical contractions for at least 4-5 minutes. On the procedure: 2. Intraluminal pressure in the Heidenhain pouch of the dog
Pressure changes were recorded via a saline filled catheter inserted, with airtight closure, into the fistula of a chronic Heidenhain pouch of the previously fasted and lightly restrained conscious dog. The catheter was connected to a physiological pressure transducer and pressure changes recorded on a hot wire pen recorder. Compounds were administered when the motility was in a phase of relatively low activity and the dose range determined which induced an increase in the amplitude of rhythmical contractions for a period of at least 4-5 minutes.

Assay [2] concerns Intragastric pressure. Description: Intragastric pressure in the rat (gastric motility, fasted conscious restrained rats). In kind it is in vivo. The settings on record: sc, 40 min, s.c., intragastric pressure waves, 40 minute period following dosing. The method, then:
1. Intragastric pressure in the rat
Intragastric pressure changes were recorded from fasted conscious and restrained rats using a saline filled catheter inserted into the lumen of the stomach via a permanent gastric fistula. The catheter was connected to a physiological pressure transducer and pressure changes recorded on a hot wire pen recorder. An index of activity was obtained by measuring the average height of pressure waves during 10 minute periods. Values for 4 such periods were obtained during assessment of spontaneous activity prior to dosing and for the 40 minute period following dosing with compound or vehicle. The Student's "t" test was applied to the mean values obtained for activity prior to and post treatment. Groups of 10 animals were used for each treatment.

What is called ED50 is the dose at which the effect has come halfway, by size or by number of responders. A higher ED50 goes with weaker potency. Regarding `COc1cc(N)c(Cl)cc1C(=O)NC1C2CCC1CN(C)C2` (racemic) [Example E1, (±) (8β)-4-Amino-5-chloro-2-methoxy-N-(3-methyl-3-azabicyclo[3,2,1]octan-8-yl)benzamide], in assay [1], the 50% effect level (ED50) was put at a dose of 0.05 mg/kg.
Regarding `COc1cc(N)c(Cl)cc1C(=O)NC1C2CCC1CN(C)C2` (racemic) [Example E2, (±) (8α)-4-Amino-5-chloro-2-methoxy-N-(3-methyl-3azabicyclo[3,2,1]octan-8-yl)benzamide], the 50% effective dose (ED50) in assay [2] was determined as 0.5 mg/kg.
As to `CCN1CC2CCC(C1)C2NC(=O)c1cc(Cl)c(N)cc1OC` (racemic) [Example E5, (±)(8β)-4-Amino-5-chloro-2-methoxy-N-(3-ethyl-3-azabicyclo[3,2,1]octan-8-yl)benzamide], it took a dose of 0.01 mg/kg to reach the 50% effect level in assay [1] (ED50).

The record behind these values is patent publication US4719217A, “Certain N-azabicycloalkyl-benzamides useful in the treatment of impaired gastro-intestinal motility or emesis” (Beecham Group p.l.c., priority 1985, dated 1988).
